{
  "source": "patent US20230286979A1",
  "about": "“SALT OF DIHYDROPYRIDO[2,3-D]PYRIMIDINONE DERIVATIVE, PREPARATION METHOD THEREFOR, AND USE THEREOF” (NANJING CHIA TAI TIANQING PHARMACEUTICAL CO., LTD., priority 2020, published 2023)",
  "test_system": "AKT kinase",
  "assay": "AKT kinase activity inhibition, summary statement of Test Example 1",
  "assay_type": "biochemical",
  "details": "as demonstrated by Test Example 1",
  "method": "g) The plate was sealed, the reaction solution was mixed until uniform and reacted at the room temperature for 1 h, and fluorescence signals were detected by using an ENVISION (Perkinelmer) instrument (320 nm stimulation, 665 nm, 615 nm emission). An inhibition rate in each well was calculated from all active wells and background signal wells, a mean value of repetitive wells was calculated, and the half inhibitory activity (IC50) of each compound to be tested was fitted by using the professional drawing analysis software PRISM 6.0.",
  "data": [
    {"smiles": "CC(C)NC[C@@H](C(=O)N1CCN(c2ncnc3c2[C@H](C)CC(=O)N3)[C@H]2C[C@H]21)c1ccc(Cl)cc1", "note": "(single isomer, unassigned) [Isomer 2 of Example 1]", "values": [
      {"measurement": "inhibiting effect on the AKT kinase activity", "value": "has an inhibiting effect"}
    ]}
  ]
}
